Reference: ChEMBL document CHEMBL5154707, “Synthesis and biological evaluation of novel hybrids of phenylsulfonyl furoxan and phenstatin derivatives as potent anti-tumor agents” (Eur J Med Chem, 2022)
Active and inactive are the calls of the source. No cut-off for these calls is given here.

Key:
[1] = system: HCT-116; assay: Antiproliferative activity against human HCT-116 cells after 48 hrs by MTT assay; settings: HCT-116, 48 h
[2] = Antiproliferative activity against human A2780/PTX cells after 48 hrs by MTT assay
[3] = system: A2780cisR; assay: Antiproliferative activity against human A2780 cisR cells after 48 hrs by MTT assay; assay type: functional, cell-based
[4] = Resistant factor, ratio of IC50 for antiproliferative activity against human A2780/PTX cells to IC50 for human A2780 cells; assay type: functional
[5] = Resistant factor, ratio of IC50 for antiproliferative activity against human A2780 cisR cells to IC50 for human A2780 cells; assay type: functional
[6] = Cytotoxicity against human HOSE cells after 48 hrs by MTT assay; assay type: toxicity, cell-based
[7] = system: A2780; assay: Induction of nitric oxide release in human A2780 cells measured by Griess reagent based assay; assay type: functional, cell-based
[8] = system: A2780; assay: cells; settings: Homo sapiens, A2780, 48 h
Description: Antiproliferative activity against human A2780 cells after 48 hrs by MTT assay

[9] = system: MDA-MB-231; assay: cells; settings: Homo sapiens, MDA-MB-231, 48 h
Description: Antiproliferative activity against human MDA-MB-231 cells after 48 hrs by MTT assay

[10] = system: A549; assay: cells; settings: Homo sapiens, A549, 48 h
[11] = target: Tubulin (Sus scrofa, UniProt P02554+P02550); assay: Inhibition of pig brain tubulin polymerization
[12] = target: T1, Tubulin (Homo sapiens) (UniProt P68371+Q9H4B7+P0DPH7+P68366+Q13509+Q71U36+P04350+Q3ZCM7+P07437+P68363+Q9BQE3+Q6PEY2+Q13885+Q9BVA1+Q9BUF5); assay: Inhibition of tubulin polymerization in A549 cells assessed as disruption of microtubule network at 10 to 20 nM measured by immunofluorescence assay; assay type: cell-based; settings: dose 10-20 nM
[13] = target: T1, Tubulin (Homo sapiens); assay: Inhibition of tubulin polymerization in A549 cells assessed as disruption of microtubule network at 20 nM measured by immunofluorescence assay; assay type: cell-based

Row | Structure (SMILES) | IC50 [1] [µM] | IC50 [8] [µM] | IC50 [9] [µM] | IC50 [10] [µM] | also measured
1 | COc1ccc(C(=O)c2cc(OC)c(OC)c(OC)c2)cc1O [PHENSTATIN] | 0.17 | 0.12 | 0.051 | 21 | IC50 [2]: 9.35 µM; IC50 [3]: 2.85 µM; Ratio IC50 [4]: 77.9; Ratio IC50 [5]: 23.8; IC50 at 48 h [6]: 0.16 µM; Activity [7]: Active
2 | COc1ccc(/C=C\c2cc(OC)c(OC)c(OC)c2)cc1O [COMBRETASTATIN A4] |  |  | 0.012 | 0.006 | 
3 | COc1cc(OCCOc2no[n+]([O-])c2S(=O)(=O)c2ccccc2)cc(C(=O)c2ccc(Br)cc2)c1 |  |  |  |  | IC50 [11]: 1.6 µM; inhibition [12]: Active; inhibition [13]: Active
4 | CC(=O)O[C@H]1C(=O)[C@@]2(C)[C@H]([C@H](OC(=O)c3ccccc3)[C@]3(O)C[C@H](OC(=O)[C@H](O)[C@@H](NC(=O)c4ccccc4)c4ccccc4)C(C)=C1C3(C)C)[C@]1(OC(C)=O)CO[C@@H]1C[C@@H]2O [PACLITAXEL] |  |  |  |  | IC50 at 48 h [6]: 0.018 µM
5 | COc1ccc(C(=O)c2ccc3ccccc3c2)cc1O | 124 | 0.17 | 0.12 | 34 | 
6 | O=S(=O)(c1ccccc1)c1no[n+]([O-])c1S(=O)(=O)c1ccccc1 | 2.68 |  | 1.87 | 235 | Activity [7]: Active
7 | COc1ccc(C(=O)c2ccc(Br)cc2)cc1O | 3.65 | 1.16 | 2.11 | 224 | 
8 | COc1ccc(C(=O)c2ccc(F)cc2)cc1O | > 20 | > 20 | > 20 | > 20 | 
9 | COc1ccc(C(=O)c2ccc(Cl)cc2)cc1O | 2.65 | 3.69 | 4.18 | 6.64 | 
